Assay results published in patent US8981112B2, “Inhibitors of β-secretase” (Boehringer Ingelheim International GmbH, priority 2012, dated 2015).

Tests used:
[1] = system: production of Abeta1-x peptides in H4 neuroglioma cell line stably expressing human APP; assay: H4-APPwt Cell-Based Assay (Assay 2), Abeta1-x production; conditions: H4 neuroglioma cells expressing human APP, Abeta1-x; read-out: H4-APPwt cell IC50 nM (assay 2)
Procedure: H4-APPwt Cell-Based Assay (Assay 2)
Cellular potency of the compounds of the invention was assessed in an assay monitoring production of Abeta1-x peptides in the H4 neuroglioma cell line (ATCC, Cat. #HTB-148) stably expressing human APP, using an immunoassay such as AlphaLISA (PerkinElmer, Cat.# AL288). Tested compounds were dissolved in DMSO and pre-diluted in the culture medium (DMEM containing 10% FBS and 1% penicillin/streptomycin) to achieve twice the final concentration of the compounds in the assay. Equal volumes of the 2× solutions of the tested compounds and cell suspension were added to a 96-well culture plate, so that each well contained ˜10,000 cells in a final volume of 200 μl. Final concentration of DMSO in the assay was 0.2%. The plates were incubated for 5 hrs at 37° C., 5% CO2 to allow cells to attach to the bottom of the wells in the presence of the tested compounds. Then the media was removed and replaced with fresh media containing tested compounds at the same final concentration. The plates were incubated for 18 hrs at 37° C., 5% CO2. Concentrations of Ab1-x were determined using AlphaLISA immunoassay (PerkinElmer, Cat.# AL288) following manufacturer's protocol. Concentrations of Abeta1-x in the wells containing either DMSO or 10 μM beta-secretase inhibitor (BACE inhibitor IV, EMD Bioscience, Cat. #565788) were used as uninhibited and background controls, correspondingly, for calculating percent inhibition values for each well with the tested compounds.

[2] = target: hERG (Homo sapiens (Human), UniProt Q12809); assay: hERG-Channel Assay (Assay 3), whole-cell patch clamp; format: cell-based; conditions: human, HEK293 cells stably transfected with hERG, pH 7.4; 10 μM, HEK293 cells transfected with hERG
Sequence of hERG (Q12809 whole entry): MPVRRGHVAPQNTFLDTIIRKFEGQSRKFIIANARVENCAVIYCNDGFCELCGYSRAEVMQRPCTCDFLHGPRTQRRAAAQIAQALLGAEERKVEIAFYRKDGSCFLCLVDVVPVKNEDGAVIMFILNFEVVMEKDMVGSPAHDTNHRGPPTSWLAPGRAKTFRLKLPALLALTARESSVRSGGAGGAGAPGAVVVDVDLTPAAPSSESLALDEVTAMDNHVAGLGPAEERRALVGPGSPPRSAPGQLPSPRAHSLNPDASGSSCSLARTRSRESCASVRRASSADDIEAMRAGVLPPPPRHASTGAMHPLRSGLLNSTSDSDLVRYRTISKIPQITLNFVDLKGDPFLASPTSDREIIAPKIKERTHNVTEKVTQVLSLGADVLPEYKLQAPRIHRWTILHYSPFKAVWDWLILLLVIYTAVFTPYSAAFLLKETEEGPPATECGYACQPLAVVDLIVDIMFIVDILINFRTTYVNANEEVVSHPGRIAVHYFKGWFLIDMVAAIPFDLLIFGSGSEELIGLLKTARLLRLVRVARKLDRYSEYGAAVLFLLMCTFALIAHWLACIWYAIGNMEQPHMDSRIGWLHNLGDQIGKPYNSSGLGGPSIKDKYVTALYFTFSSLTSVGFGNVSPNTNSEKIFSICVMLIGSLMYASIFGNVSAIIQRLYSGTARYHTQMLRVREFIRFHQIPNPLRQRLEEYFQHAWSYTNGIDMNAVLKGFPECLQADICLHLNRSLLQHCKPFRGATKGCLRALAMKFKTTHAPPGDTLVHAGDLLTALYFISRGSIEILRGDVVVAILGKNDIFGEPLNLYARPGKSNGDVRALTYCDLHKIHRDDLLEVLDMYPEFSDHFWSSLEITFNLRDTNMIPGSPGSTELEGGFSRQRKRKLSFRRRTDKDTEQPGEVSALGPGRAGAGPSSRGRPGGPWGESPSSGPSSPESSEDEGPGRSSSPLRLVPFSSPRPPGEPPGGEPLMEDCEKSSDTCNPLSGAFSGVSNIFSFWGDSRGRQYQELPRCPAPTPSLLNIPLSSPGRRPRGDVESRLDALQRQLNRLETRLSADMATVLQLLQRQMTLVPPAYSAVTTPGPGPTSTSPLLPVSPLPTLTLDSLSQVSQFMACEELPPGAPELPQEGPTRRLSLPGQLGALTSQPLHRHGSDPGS
Text: hERG-Channel Assay (Assay 3)
HEK (human embryonic kidney) 293 cells were stably transfected with hERG cDNA.
Cells were superfused with a bath solution containing (mM): NaCl (137), KCl (4.0), MgCl2 (1.0), CaCl2 (1.8), Glucose (10), HEPES (10), pH 7.4 with NaOH. Patch pipettes were made from borosilicate glass tubing using a horizontal puller and filled with pipette solution containing (mM): K-aspartate (130), MgCl2 (5.0), EGTA (5.0), K2ATP (4.0), HEPES (10.0), pH 7.2 with KOH. Resistance of the microelectrodes was in the range between 2 and 5 MΩ.
Membrane currents were recorded using an EPC-10 patch clamp amplifier and PatchMaster software. hERG-mediated membrane currents were recorded at 35° C., using the whole-cell configuration of the patch-clamp technique. Transfected HEK293 cells were clamped at a holding potential of −60 mV and hERG-mediated inactivating tail currents were elicited using a pulse pattern with fixed amplitudes (activation/inactivation: 40 mV for 2000 ms; recovery: −120 mV for 2 ms; ramp to 40 mV in 2 ms; inactivating tail current: 40 mV for 50 ms) repeated at 15 s intervals. During each inter-pulse interval 4 pulses scaled down by a factor of 0.2 were recorded for a P/n leak subtraction procedure. Rs compensation was employed up to a level that safely allowed recording devoid of ringing.
The different concentrations of the test compound were applied sequentially on each of the different cells investigated. A steady state level of baseline current was measured for at least 6 sweeps prior to the application of the first test compound concentration.
The test compound was dissolved in DMSO to yield a master stock solution which was diluted further in DMSO to stock solutions needed for the lower concentrations. Final dilutions in extracellular buffer were prepared freshly from these stocks by a 1:1000 dilution step each before starting the experiments.
Peak current amplitudes were measured 3 ms after the ramp to +40 mV. For baseline and each concentration the peak currents of the three last sweeps before application of the next concentration were averaged. Residual currents (I/I0) were calculated for each cell as the fraction of actual average peak current and average baseline peak current. Results are presented as percent (%) inhibition (1−I/I0)*100% at 10 μM.

| Compound | IC50 [1] | inhibition at 10 µM [2] |
| --- | --- | --- |
| CO[C@H]1[C@H](C)C[C@@]2(Cc3ccc(C#N)cc3[C@]23N=C(N)N(C[C@@H]2CCO2)C3=O)C[C@@H]1C (stereo in doubt) [Example 18] | 1.02 nM | 17% |
| CC[C@@H]1C[C@]2(CC[C@H]1OC)Cc1ccc(C#N)cc1[C@]21N=C(N)N(CC2CCOCC2)C1=O [Example 2] | 0.29 nM | 22% |
| CC[C@@H]1C[C@]2(CC[C@H]1OC)Cc1ccc(C#N)cc1[C@]21N=C(N)N(CC2(F)CCOCC2)C1=O [Example 4] | 0.28 nM | 0% |
| CO[C@H]1CC[C@@]2(Cc3ccc(C#N)cc3[C@]23N=C(N)N(CC2(C)COC2)C3=O)C[C@@H]1C [Example 8] | 0.49 nM | 16% |
| CO[C@H]1CC[C@@]2(Cc3ccc(C#N)cc3[C@]23N=C(N)N(Cc2ccncn2)C3=O)C[C@@H]1C [Example 9] | 1.9 nM | 16% |
| CO[C@H]1[C@H](C)C[C@@]2(Cc3ccc(C#N)cc3[C@]23N=C(N)N(C2COC2)C3=O)C[C@@H]1C [Example 12] | 1.1 nM | 11% |
| CO[C@H]1[C@H](C)C[C@@]2(Cc3ccc(C#N)cc3[C@]23N=C(N)N(CC2COC2)C3=O)C[C@@H]1C [Example 13] | 0.92 nM | 18% |
| CO[C@H]1[C@H](C)C[C@@]2(Cc3ccc(C#N)cc3[C@]23N=C(N)N(C[C@H]2CCCO2)C3=O)C[C@@H]1C [Example 14] | 0.12 nM | 20% |
| CO[C@H]1[C@H](C)C[C@@]2(Cc3ccc(C#N)cc3[C@]23N=C(N)N(C[C@@H]2CCCO2)C3=O)C[C@@H]1C [Example 15] | 0.11 nM | 11% |
| CO[C@H]1[C@H](C)C[C@@]2(Cc3ccc(C#N)cc3[C@]23N=C(N)N(CC(C)(C)F)C3=O)C[C@@H]1C [Example 17] | 0.89 nM | 12% |
| CO[C@H]1[C@H](C)C[C@@]2(Cc3ccc(C#N)cc3[C@]23N=C(N)N(C[C@@H]2COCCO2)C3=O)C[C@@H]1C [Example 21] | 0.48 nM | 24% |
| CO[C@H]1[C@H](C)C[C@@]2(Cc3ccc(C#N)cc3[C@]23N=C(N)N(C[C@H]2COCCO2)C3=O)C[C@@H]1C [Example 22] | 0.26 nM | 9% |
| CO[C@H]1[C@H](C)C[C@@]2(Cc3ccc(C#N)cc3[C@]23N=C(N)N(CC2(F)CCOCC2)C3=O)C[C@@H]1C [Example 23] | 0.18 nM | 16% |
| CC[C@@H]1C[C@@]2(Cc3ccc(C#N)cc3[C@]23N=C(N)N(CC(C)(C)F)C3=O)C[C@H](C)[C@H]1OC [Example 26] | 0.2 nM | 8% |
